From patent US7186553B1, “Human derived immortalized liver cell line” (Takeda Pharmaceutical Company Limited, priority 1998, dated 2007)

Assays:
[1] = tested on: CYP1A1; assay: Induction of expression of the CYP1A1 gene in OUMS-29 cells (RT-PCR); conditions: 1 day after addition, 3-MC 0 to 10000 nM, BP 0 to 50000 nM, PB 0 to 25 mM, corrected to beta-actin mRNA
From the text: (§1) The expression of cytochrome P450 in the OUMS-29 culture can be analyzed by assessing the level of mRNA content by the commonly known RT-PCR method using DNA primers specific to different types of cytochrome P450. These primers can be prepared from the sequences of the respective types of cytochrome P450 available from the Gene Bank database. The accession numbers at the Gene Bank are K03191 for CYP1A1, M55053 for CYP1A2, J02625 for CYP2E1, J04449 for CYP3A4, J04813 for CYP3A5, and D00408 for CYP3A7. The individual primers used were
(§2) The OUMS-29 culture was cultured for 5 to 7 days; the cells becoming confluent were harvested, from which RNA was extracted using the RNAeasy kit (Quiagen). This RNA, along with the previously determined primers specific to the respective types of cytochrome P450, was subjected to reverse transcription from mRNA and PCR using an one-step PCR kit (Takara Shuzo), after which it was separated using agarose gel and visualized with ultraviolet rays in the presence of ethidium bromide.
(§3) The cultured cells were separated, from which RNA was extracted using the method described above and subjected to RT-PCR.
(§4) Regarding annealing conditions for the RT-PCR method, the annealing temperatures were 55° C. for CYP1A1, 65° C. for CYP1A2, and 55° C. for CYP3A, the cycle numbers being 28 to 36 cycles.
The cycle number for beta-actin, serving as a control, was 15 cycles.
In this operation, an actin competitive RT-PCR kit (Takara Shuzo) was used to correct the total mRNA content in each sample with reference to the mRNA content of beta-actin, which is expressed to the same extent in all tissues.

[2] = tested on: CYP1A2; assay: Induction of expression of the CYP1A2 gene in OUMS-29 cells (RT-PCR); conditions: 1 day after addition, 3-MC 0 to 10000 nM, BP 0 to 50000 nM, corrected to beta-actin mRNA
From the text: as §1, §2, §3, §4
The cycle number for beta-actin, serving as a control, was 15 cycles. […]

[3] = molecular target: T1, NADPH cytochrome P450 reductase (Homo sapiens, UniProt P16435); assay: Cytochrome P450 reductase activity of enzyme source of OUMS-29 origin (cytochrome C reduction); type: in vitro ADME; conditions: disrupted OUMS-29 cells, with NADPH; 1 unit = reducing 1 nanomol of cytochrome C per milligram of protein per minute
T1 construct: disrupted using an ultrasound generator; this suspension was used as the enzyme source; endogenous in cells; host or cells: OUMS-29 (SV40 T antigen-immortalized human fetal hepatocytes), sonicated cell suspension
T1 sequence (P16435 1-677): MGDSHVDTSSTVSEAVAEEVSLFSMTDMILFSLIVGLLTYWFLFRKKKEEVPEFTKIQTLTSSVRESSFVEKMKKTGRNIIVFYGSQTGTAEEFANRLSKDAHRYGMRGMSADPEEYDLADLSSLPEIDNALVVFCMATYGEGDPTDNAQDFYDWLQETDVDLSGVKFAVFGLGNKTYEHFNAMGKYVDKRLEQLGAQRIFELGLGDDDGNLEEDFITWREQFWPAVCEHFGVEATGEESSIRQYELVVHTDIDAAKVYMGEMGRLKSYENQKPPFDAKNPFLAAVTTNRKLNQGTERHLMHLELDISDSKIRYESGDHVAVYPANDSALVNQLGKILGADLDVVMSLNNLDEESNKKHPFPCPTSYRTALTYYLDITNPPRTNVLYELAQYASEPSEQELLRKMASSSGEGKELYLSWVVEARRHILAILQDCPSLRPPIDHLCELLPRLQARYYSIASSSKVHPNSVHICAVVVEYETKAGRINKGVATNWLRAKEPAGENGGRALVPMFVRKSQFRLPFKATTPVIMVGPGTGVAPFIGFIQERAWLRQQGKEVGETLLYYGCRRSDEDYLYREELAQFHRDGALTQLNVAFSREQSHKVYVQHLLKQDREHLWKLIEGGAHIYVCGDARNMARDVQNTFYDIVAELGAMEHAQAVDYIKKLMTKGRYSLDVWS
Method: Specifically, cytochrome P450 reductase activity was determined on the basis of cytochrome C reduction in the presence of NADPH (reduced nicotinamide adenine dinucleotide phosphate) and an enzyme source of OUMS-29 origin with cytochrome C as the substrate.

| Compound | expression of CYP1A1 (mRNA, RT-PCR) [1] | expression of CYP1A2 (mRNA, RT-PCR) [2] | cytochrome C reduction (cytochrome P450 reductase activity) [3] |
| --- | --- | --- | --- |
| Cc1ccc2cc3c(ccc4ccccc43)c3c2c1CC3 [3-methylcholanthrene] | enhanced | enhanced |  |
| c1ccc2c(c1)c1cccc3ccc4cccc2c4c31 [benzpyrene] | enhanced | enhanced |  |
| CCC1(c2ccccc2)C(=O)NC(=O)NC1=O [phenobarbitone] | enhanced |  |  |
| cytochrome C |  |  | 8 units |
